EC50 data for ten compounds are collected here from patent publication US8951964B2, “Phenanthridine macrocyclic hepatitis C serine protease inhibitors” (priority 2010, dated 2015).

Read-outs that look alike come from different tables or passages of the source. Some results are limits rather than exact numbers.

Format in all cases: cell-based, HCV
Experiment [1] relates to genotype 3a NS3 gene in transient replicon. Kind of experiment: 3a transient replicon (luciferase reporter). A general note: A replicon is a self-replicating genome or part of one, used to study replication in cells.
The test system of experiment [2] is genotype 1b replicon (1b-Con1, 1b-N). Kind of experiment: 1b stable replicon (luciferase reporter). Particulars: HuH-7 cells, 5% FBS.
The test system of experiment [3] is genotype 1a replicon (1a-H77). As to the kind of experiment: 1a stable replicon (luciferase reporter). The settings on record: HuH-7 cells, 5% FBS.
The test system of experiment [4] is genotype 1a transient replicon (1a-H77). As to the kind of experiment: 1a transient replicon (luciferase reporter). The settings on record: HuH-7 cells, 5% FBS.
The subject of experiment [5] is genotype 1b transient replicon. As to the kind of experiment: 1b transient replicon (luciferase reporter). The settings on record: HuH-7 cells, 5% FBS.
The mark [6] stands for this setting: Hepatitis C virus, Huh-7, read-out: 3a transient replicon (nM).
Setting [7] is: Hepatitis C virus, Huh-7, luciferase reporter.

Regarding `Cc1cc(C(=O)N[C@H]2CCCCC/C=C\[C@@H]3C[C@@]3(C(=O)NS(=O)(=O)C3(C)CC3)NC(=O)[C@@H]3C[C@@H](Oc4nc5cc(F)ccc5c5cc(F)ccc45)CN3C2=O)no1`, the EC50 is above 1 nM in experiment [1] (setting [6]); 0.1 to 0.5 nM in experiment [2] (Hepatitis C virus); 0.1 to 0.5 nM in experiment [3] (setting [7]); below 0.1 nM in experiment [4] (Hepatitis C virus); 0.1 to 0.5 nM in experiment [5] (Hepatitis C virus).
In the case of `Cc1cc(C(=O)N[C@H]2CCCCC/C=C\[C@@H]3C[C@@]3(C(=O)NS(=O)(=O)C3CC3)NC(=O)[C@@H]3C[C@@H](Oc4nc5ccccc5c5cc(F)ccc45)CN3C2=O)no1`, the EC50 is above 1 nM in experiment [1] (setting [6]); 0.1 to 0.5 nM in experiment [2] (Hepatitis C virus); 0.1 to 0.5 nM in experiment [3] (setting [7]); below 0.1 nM in experiment [4] (Hepatitis C virus); 0.1 to 0.5 nM in experiment [5] (Hepatitis C virus).
`CC1(S(=O)(=O)NC(=O)[C@@]23C[C@H]2/C=C\CCCCC[C@H](NC(=O)c2ccc(F)s2)C(=O)N2C[C@H](Oc4nc5cc(F)ccc5c5ccccc45)C[C@H]2C(=O)N3)CC1`: the EC50 was above 1 nM in experiment [1] (setting [6]); 0.1 to 0.5 nM in experiment [2] (Hepatitis C virus); 0.5 to 1 nM in experiment [3] (setting [7]); below 0.1 nM in experiment [4] (Hepatitis C virus); 0.1 to 0.5 nM in experiment [5] (Hepatitis C virus).
For `CC1(S(=O)(=O)NC(=O)[C@@]23C[C@H]2/C=C\CCCCC[C@H](NC(=O)c2ccon2)C(=O)N2C[C@H](Oc4nc5cc(F)ccc5c5cc(F)ccc45)C[C@H]2C(=O)N3)CC1`, the EC50 in experiment [1] (setting [6]) was above 1 nM; in experiment [2] (Hepatitis C virus), 0.1 to 0.5 nM; in experiment [3] (setting [7]), 0.1 to 0.5 nM; in experiment [4] (Hepatitis C virus) it was below 0.1 nM; in experiment [5] (Hepatitis C virus), below 0.1 nM.
Take `O=C(N[C@H]1CCCCC/C=C\[C@@H]2C[C@@]2(C(=O)NS(=O)(=O)C2CC2)NC(=O)[C@@H]2C[C@@H](Oc3nc4ccccc4c4cc(F)ccc34)CN2C1=O)c1cncs1`: the EC50 in experiment [1] (setting [6]) is above 1 nM; in experiment [2] (Hepatitis C virus), 0.1 to 0.5 nM; in experiment [3] (setting [7]) it was 0.5 to 1 nM; in experiment [4] (Hepatitis C virus), 0.1 to 0.5 nM; in experiment [5] (Hepatitis C virus), 0.1 to 0.5 nM.
Turning to `COc1ccc2c(c1)nc(O[C@@H]1C[C@H]3C(=O)N[C@]4(C(=O)NS(=O)(=O)C5CC5)C[C@H]4/C=C\CCCCC[C@H](NC(=O)c4ccn(C)n4)C(=O)N3C1)c1ccc(F)cc12`, the EC50 lay within 0.5 to 1 nM in experiment [1] (setting [6]); 0.1 to 0.5 nM in experiment [2] (Hepatitis C virus); 0.1 to 0.5 nM in experiment [3] (setting [7]); 0.1 to 0.5 nM in experiment [4] (Hepatitis C virus); 0.5 to 1 nM in experiment [5] (Hepatitis C virus).
Take `Cn1ccc(C(=O)N[C@H]2CCCCC/C=C\[C@@H]3C[C@@]3(C(=O)NS(=O)(=O)C3(C)CC3)NC(=O)[C@@H]3C[C@@H](Oc4nc5cc(OC(F)(F)F)ccc5c5ccccc45)CN3C2=O)n1`: the EC50 in experiment [1] (setting [6]) is 0.1 to 0.5 nM; in experiment [2] (Hepatitis C virus), below 0.1 nM; in experiment [3] (setting [7]) it was 0.1 to 0.5 nM; in experiment [4] (Hepatitis C virus) it was below 0.1 nM; in experiment [5] (Hepatitis C virus), 0.1 to 0.5 nM.
As for `Cn1ccc(C(=O)N[C@H]2CCCCC/C=C\[C@@H]3C[C@@]3(C(=O)NS(=O)(=O)C3CC3)NC(=O)[C@@H]3C[C@@H](Oc4nc5cc(F)ccc5c5cc(OC(F)(F)F)ccc45)CN3C2=O)n1`, the EC50 in experiment [1] (setting [6]) is above 1 nM; in experiment [2] (Hepatitis C virus), below 0.1 nM; in experiment [3] (setting [7]), 0.5 to 1 nM; in experiment [4] (Hepatitis C virus), 0.1 to 0.5 nM; in experiment [5] (Hepatitis C virus), 0.1 to 0.5 nM.
For the compound `O=C(N[C@H]1CCCCC/C=C\[C@@H]2C[C@@]2(C(=O)NS(=O)(=O)C2CC2)NC(=O)[C@@H]2C[C@@H](Oc3nc4cc(F)ccc4c4cc(F)ccc34)CN2C1=O)c1cscn1` [drawing 124], the EC50 in experiment [1] (setting [6]) is above 1 nM; in experiment [2] (Hepatitis C virus), 0.1 to 0.5 nM; in experiment [3] (setting [7]), 0.5 to 1 nM; in experiment [4] (Hepatitis C virus) it was 0.1 to 0.5 nM; in experiment [5] (Hepatitis C virus), 0.1 to 0.5 nM.
On to `O=C(N[C@H]1CCCCC/C=C\[C@@H]2C[C@@]2(C(=O)NS(=O)(=O)C2CC2)NC(=O)[C@@H]2C[C@@H](Oc3nc4cc(F)ccc4c4cc(F)ccc34)CN2C1=O)c1cscn1` [drawing 125], for which the EC50 is above 1 nM in experiment [1] (read-out: 3a transient replicon, luciferase reporter, HuH-7 cells, 5% FBS); 0.1 to 0.5 nM in experiment [2]; above 1 nM in experiment [3] (luciferase reporter); 0.1 to 0.5 nM in experiment [4]; 0.1 to 0.5 nM in experiment [5].
